Numbers after ± are expanded uncertainties.
Legend:
[1] = Crystal; DTA
[2] = Molar enthalpy of transition or fusion; conditions: Crystal; DSC

SMILES | Triple point temperature [1] [K] | Molar enthalpy of transition or fusion [2] [kJ/mol]
O=c1oc2ccccc2cc1O [3-hydroxycoumarin] | 425.62 ± 0.39 | 27.1 ± 0.61
O=c1cc(O)c2ccccc2o1 [4-hydroxycoumarin] | 483.62 ± 0.91 | 23.2 ± 0.59
